For the assay, the system named is T1, primary mouse cortical neurons.
T1 construct: primary cortical neurons, DIV 10
In words: cells. Particulars: Cortical neurone, 20 h, read-out: % inhibition, inhibition of NMDA-induced cell death (protection score), 30 min pre-treatment. Set-up: Protection from NMDA-induced (30 uM, 10 min) neuronal death; Hoechst nuclear morphology by automated microscopy. As to the method:
On DIV 10, compounds were applied to the cells reaching an end concentration of 10 μM. Cells were incubated for 30 min at 37 °C, 5% CO2 before adding NMDA (30 μM). Cells were incubated for another 10 min in the incubator, then washed twice with defined minimal medium containing 10 μM of the respective compound and incubated for an additional 20 h before readout. Untreated (no NMDA) and NMDA-only stimulated wells were treated with 0.1% DMSO. […] After 15 min of incubation at room temperature, cells were washed twice with phosphate buffered saline. […] Dead neurons were identified by amorphous or shrunken nuclei using CellProfiler and CellProfiler Analyst software. For all cell death analyses the experimental unit (N) is defined as an independent experiment using an independent neuronal preparation. For each independent experiment, data from 3 replicate wells (i.e., from 36 images), representing an average of 3000 cells was analyzed per condition. The survival rate S was calculated by dividing the number of living cells by the total number of cells. The survival rate was then used to calculate the protection score according to Scompound−Svehicle/Suntreated−Svehicle×100=%protection , where ‘compound’ refers to compound + NMDA treatment, ‘vehicle’ refers to vehicle + NMDA treatment, and ‘untreated’ refers to DMSO control. […] As a proof of principle, we next used our assay to screen two commercially available drug libraries. In these screens, primary cortical cells were incubated with test compounds at 10 μM concentration for 30 min before addition of 30 μM NMDA. After 10 min NMDA treatment, cells were washed with fresh medium and kept in the presence of test compounds for 20 h until assessment of cell viability. […] This library covers structurally diverse drugs from several fields such as oncology, cardiology, immunology, and neurology/psychiatry.

From publication PMC7489219 (Molecular Brain, 2020) come the findings set out here.

Usually inhibition stands for the change of the read-out against control, counted positive when it falls.

Counter-ions that a name gives are not always drawn.

As for `CN(C)CCCN1c2ccccc2Sc2ccc(Cl)cc21` [Chlorpromazine (Sonazine)], the inhibition at 10 µM is -4.78%. With `CN(C)CC/C=C1/c2ccccc2Sc2ccc(Cl)cc21` [Chlorprothixene], the inhibition at 10 µM is -2.97%. As for `O=c1cc(-c2ccccc2)oc2cc(O)cc(O)c12` [Chrysin], the inhibition at 10 µM is -0.0506%. As for `Cc1cc(O)c2c(c1)C(=O)c1cccc(O)c1C2=O` [Chrysophanic acid (Chrysophanol)], the figure is 8.58%.

As to `COCCOC(=O)C1=C(C)NC(C)=C(C(=O)OC/C=C/c2ccccc2)C1c1cccc([N+](=O)[O-])c1` (centres unmarked) [Cilnidipine], the inhibition at 10 µM is -16%. As for `O=C1CCc2cc(OCCCCc3nnnn3C3CCCCC3)ccc2N1` [Cilostazol], the figure is -13.8%; as for `CN/C(=N\CCSCc1nc[nH]c1C)NC#N` [Cimetidine (Tagamet)], -0.847%. As for `C=C[C@H]1CN2CC[C@H]1C[C@H]2[C@H](O)c1ccnc2ccccc12` [Cinchonidine], the figure is -3.04%; as for `Nc1nc(Cl)nc2c1ncn2[C@H]1C[C@H](O)[C@@H](CO)O1` [Cladribine], -1.65%; as for `CC[C@H]1OC(=O)[C@H](C)[C@@H](O[C@H]2C[C@@](C)(OC)[C@@H](O)[C@H](C)O2)[C@H](C)[C@@H](O[C@@H]2O[C@H](C)C[C@H](N(C)C)[C@H]2O)[C@](C)(OC)C[C@@H](C)C(=O)[C@H](C)[C@@H](O)[C@]1(C)O` [Clarithromycin (Biaxin, Klacid)], -1.54%. On to `CCC[C@@H]1C[C@@H](C(=O)N[C@@H]([C@H]2O[C@H](SC)[C@H](O)[C@@H](O)[C@H]2O)[C@H](C)Cl)N(C)C1` [Clindamycin hydrochloride (Dalacin)], for which the inhibition at 10 µM came to 2.41%. As for `Nc1nc(Cl)nc2c1ncn2[C@@H]1O[C@H](CO)[C@@H](O)[C@@H]1F` [Clofarabine], the figure is -10.2%; as for `CCOC(=O)C(C)(C)Oc1ccc(Cl)cc1` [Clofibrate (Atromid-S)], -1.89%. Take `CCN(CC)CCOc1ccc(C(=C(Cl)c2ccccc2)c2ccccc2)cc1` [Clomifene citrate (Serophene)]: the inhibition at 10 µM is -1.18%.

With `CN(C)CCCN1c2ccccc2CCc2ccc(Cl)cc21` [Clomipramine hydrochloride (Anafranil)], the inhibition at 10 µM was -0.839%. Take `Clc1cccc(Cl)c1NC1=NCCN1` [Clonidine hydrochloride (Catapres)]: the inhibition at 10 µM was -1.98%. Regarding `COC(=O)[C@H](c1ccccc1Cl)N1CCc2sccc2C1` [Clopidogrel (Plavix)], the inhibition at 10 µM is -12%.

Consider `Nc1cc(C(Cl)=C(Cl)Cl)c(S(N)(=O)=O)cc1S(N)(=O)=O` [Clorsulon], for which the inhibition at 10 µM is -1.66%. As for `Clc1ccccc1C(c1ccccc1)(c1ccccc1)n1ccnc1` [Clotrimazole (Canesten)], the inhibition at 10 µM was -1.47%. Regarding `Cc1onc(-c2ccccc2Cl)c1C(=O)N[C@@H]1C(=O)N2[C@@H]1SC(C)(C)[C@@H]2C(=O)O` [Cloxacillin sodium (Cloxacap)], the inhibition at 10 µM came out at 0.144%. As for `CN1CCN(C2=Nc3cc(Cl)ccc3Nc3ccccc32)CC1` [Clozapine (Clozaril)], the inhibition at 10 µM was -5.01%. Consider `COC1=C(OC)C(=O)C(C/C=C(\C)CC/C=C(\C)CC/C=C(\C)CC/C=C(\C)CC/C=C(\C)CC/C=C(\C)CC/C=C(\C)CC/C=C(\C)CC/C=C(\C)CCC=C(C)C)=C(C)C1=O` [Coenzyme Q10(CoQ10)], for which the inhibition at 10 µM stood at 9.82%.

For the compound `CC(=O)OCC(=O)[C@@]1(O)CC[C@H]2[C@@H]3CCC4=CC(=O)CC[C@]4(C)[C@H]3C(=O)C[C@@]21C` [Cortisone acetate (Cortone)], the inhibition at 10 µM was -0.736%. As for `C[C@H]1COC2=C1C(=O)C(=O)c1c2ccc2c1CCCC2(C)C` [Cryptotanshinone], the inhibition at 10 µM was -2.15%.

Turning to `CN(C)c1ccc(C(=C2C=CC(=[N+](C)C)C=C2)c2ccc(N(C)C)cc2)cc1` [Crystal violet], the inhibition at 10 µM is -3.37%. As for `C=C1C[C@@]2(O)O[C@@]3(C[C@H]2C(C)C)[C@@H](C)CC[C@@H]13` [Curcumol], the inhibition at 10 µM turned out to be 7.41%. With `N=c1ccn2c(n1)O[C@H]1[C@H](O)[C@@H](CO)O[C@H]12` [Cyclocytidine HCl], the inhibition at 10 µM was -2.19%. Take `CN[C@@H](C)[C@H]1[C@H](O)C[C@@]2(C)[C@@H]3CC[C@H]4C(C)(C)[C@@H](NC)CC[C@@]45C[C@@]35CC[C@]12C` [Cyclovirobuxin D (Bebuxine)]: the inhibition at 10 µM is 17.2%. As for `Nc1ccn([C@@H]2O[C@H](CO)[C@@H](O)[C@@H]2O)c(=O)n1` [Cytarabine], the figure is 38.3%; as for `O=c1cccc2n1C[C@@H]1CNC[C@H]2C1` [Cytisine (Baphitoxine, Sophorine)], -0.723%; as for `OC[C@@H](O)[C@@H](O)[C@H](O)[C@H](O)CO` [D-Mannitol (Osmitrol)], 5.76%. `CN(C)/N=N/c1nc[nH]c1C(N)=O` [Dacarbazine (DTIC-Dome)]: the inhibition at 10 µM is -1.39%. For the compound `O=c1c(-c2ccc(O)cc2)coc2cc(O)ccc12` [Daidzein], the inhibition at 10 µM was -2.08%. For the compound `CN(C)[C@@H](CCOc1cccc2ccccc12)c1ccccc1` [Dapoxetine hydrochloride (Priligy)], the inhibition at 10 µM was -1.89%. As for `CCCCCCCCCC(=O)N[C@@H](Cc1c[nH]c2ccccc12)C(=O)N[C@H](CC(N)=O)C(=O)N[C@@H](CC(=O)O)C(=O)N[C@@H]1C(=O)NCC(=O)N[C@@H](CCCN)C(=O)N[C@@H](CC(=O)O)C(=O)N[C@H](C)C(=O)N[C@@H](CC(=O)O)C(=O)NCC(=O)N[C@H](CO)C(=O)N[C@@H]([C@H](C)CC(=O)O)C(=O)N[C@@H](CC(=O)c2ccccc2N)C(=O)O[C@@H]1C` [Daptomycin], the inhibition at 10 µM was -3.03%.

As to `Cc1nc(Nc2ncc(C(=O)Nc3c(C)cccc3Cl)s2)cc(N2CCN(CCO)CC2)n1` [Dasatinib (BMS-354825)], the inhibition at 10 µM was -9.79%. Consider `Nc1ncn([C@H]2C[C@H](O)[C@@H](CO)O2)c(=O)n1` [Decitabine], for which the inhibition at 10 µM worked out at 11.3%. On to `CC(=O)OCC(=O)[C@@]12N=C(C)O[C@@H]1C[C@H]1[C@@H]3CCC4=CC(=O)C=C[C@]4(C)[C@H]3[C@@H](O)C[C@@]12C` [Deflazacort (Calcort)], for which the inhibition at 10 µM is -1.74%. Consider `CC1(C)O[C@@H]2C[C@H]3[C@@H]4CCC5=CC(=O)C=C[C@]5(C)[C@H]4[C@@H](O)C[C@]3(C)[C@]2(C(=O)CO)O1` [Desonide], for which the inhibition at 10 µM was found to be 9.64%. Consider `C[C@@H]1C[C@H]2[C@@H]3CCC4=CC(=O)C=C[C@]4(C)[C@@]3(F)[C@@H](O)C[C@]2(C)[C@@]1(O)C(=O)CO` [Dexamethasone], for which the inhibition at 10 µM is -9.25%.

Regarding `C[C@@H](CN1CC(=O)NC(=O)C1)N1CC(=O)NC(=O)C1` [Dexrazoxane Hydrochloride], the inhibition at 10 µM is -16.2%. As to `OC[C@H]1OC(O)[C@H](O)[C@@H](O)[C@@H]1O` (stereo partly drawn) [Dextrose (D-glucose)], the inhibition at 10 µM is -6.8%. Take `O=C(O)Cc1ccccc1Nc1c(Cl)cccc1Cl` [Diclofenac]: the inhibition at 10 µM was -4.34%. For the compound `O=c1[nH]cnc2c1ncn2[C@H]1CC[C@@H](CO)O1` [Didanosine (Videx)], the inhibition at 10 µM was 11.6%. For `C[C@@H]1CC[C@H]2[C@@H](C)C(O)O[C@@H]3O[C@@]4(C)CC[C@@H]1[C@]32OO4` (some centres unmarked) [Dihydroartemisinin (DHA)], the inhibition at 10 µM was -4.3%. As for `O=C1c2c(O)cc(O)cc2O[C@H](c2cc(O)c(O)c(O)c2)[C@H]1O` [Dihydromyricetin (Ampeloptin)], the figure is 21.4%; as for `C[C@@H]1CC[C@@]2(OC1)O[C@H]1C[C@H]3[C@@H]4CC=C5C[C@@H](O[C@@H]6O[C@H](CO)[C@@H](O[C@@H]7O[C@@H](C)[C@H](O)[C@@H](O)[C@H]7O)[C@H](O)[C@H]6O[C@@H]6O[C@@H](C)[C@H](O)[C@@H](O)[C@H]6O)CC[C@]5(C)[C@H]4CC[C@]3(C)[C@H]1[C@@H]2C` [Dioscin (Collettiside III)], 32.2%. Consider `C[C@@H]1CC[C@@]2(OC1)O[C@H]1C[C@H]3[C@@H]4CC=C5C[C@@H](O)CC[C@]5(C)[C@H]4CC[C@]3(C)[C@H]1[C@@H]2C` [Diosgenin], for which the inhibition at 10 µM was -1.47%. Consider `COc1ccc(-c2cc(=O)c3c(O)cc(O)cc3o2)cc1O` [Diosmetin (Luteolin 4-methyl ether)], for which the inhibition at 10 µM came out at 8.81%. Consider `COc1ccc(-c2cc(=O)c3c(O)cc(O[C@@H]4O[C@H](CO[C@@H]5O[C@@H](C)[C@H](O)[C@@H](O)[C@H]5O)[C@@H](O)[C@H](O)[C@H]4O)cc3o2)cc1O` [Diosmin], for which the inhibition at 10 µM was -0.0881%. On to `CN(C)CCOC(c1ccccc1)c1ccccc1` [Diphenhydramine HCl (Benadryl)], for which the inhibition at 10 µM amounted to 1.97%. Turning to `OCCN(CCO)c1nc(N2CCCCC2)c2nc(N(CCO)CCO)nc(N3CCCCC3)c2n1` [Dipyridamole (Persantine)], the inhibition at 10 µM is -3.58%. In the case of `CCN(CC)C(=S)SSC(=S)N(CC)CC` [Disulfiram (Antabuse)], the inhibition at 10 µM is -13.6%.
